Experimental data published in patent publication US9162992B2, “Compounds and compositions for treatment of breathing control disorders or diseases” (GALLEON PHARMACEUTICALS, INC., priority 2010, dated 2015).

How the values were obtained:
[1] = test system: spontaneously breathing rats; test: Dose-dependent effect on minute ventilation (MV) in naive rats; format: in vivo, rat
Description: All surgical procedures were performed under anesthesia induced by 2% isoflurane in compressed medical grade air. With rats in supine position, the right femoral vein was catheterized using polyethylene tubing (PE-50). This catheter was used for fluid and drug administration. Simultaneously, the right femoral artery was also catheterized for monitoring blood pressure. In order to measure the respiratory parameters in spontaneously breathing rats, trachea was intubated using 13 gauge tracheal tube (2.5 mm ID, Instech Solomon, Pa.).
After establishing a stable base-line at 1.5% isoflurane, cumulative dose-dependent (0.01, 0.03, 0.1, 0.3, 1, 3, 10 mg/kg) ventilatory responses to compounds (XXXVI) and (L), labeled as cmpd (A) and cmpd (B) respectively, were generated from spontaneously breathing rats. Maximum peak minute ventilatory (MV) values at each dose of corresponding drug were calculated and used for generating ED50 values.

[2] = test system: midazolam-induced respiratory depression; test: Benzodiazepine-induced respiratory depression (BIRD), midazolam, rat plethysmography; format: in vivo
Description: Compound (XXXVI) was dissolved in 20% hydroxypropyl-beta-cyclodextran in sterile water, and titrated to a pH of 4-8 using pH paper and NaOH or HCl, resulting in a clear, stable solution at a concentration of 1.5 mg/mL. Other compounds: morphine sulfate, supplied as 10 mg/mL solution by (Baxter, Inc) and midazolam, supplied as 5 mg/mL solution (Hospira, Inc.)
Male Sprague-Dawley rats (Harlan, Inc.), 250-350 g at time of dosing, surgically prepared by Harlan with jugular vein cannulas. 12 Chamber Plethysmography System with temperature/humidity compensation (Epstein et al., 1980, J. Apply Physiol. 49:1107-1115); From Buxco, Inc. (PLY 3223; Buxco, Inc, Wilmington, N.C., USA) Biosystem XA, software, v2.11.1. Customized 12 site automated infusion system (Harvard Apparatus; Instech, Inc)
Rat whole body plethysmography was used to evaluate and quantify minute ventilation and the pattern of breathing. A respiratory waveform was generated from the exchange of air between the animal and the chamber. This exchange induced changes in air volume that were measured with a pressure transducer, constituting the respiratory waveform. Atmospheric temperature and humidity were also measured using temperature and humidity probes which sampled chamber conditions. A compensation factor was then determined and applied to the respiratory waveform using a standardized algorithm (Epstein et al., 1980, J. Apply Physiol. 49:1107-1115) to compensate for respiratory conditioning, which was reported as the parameter COMP (see appendix).
All animals were acclimated to plethysmography chambers for at least 1 hour, or until animals were no longer restless (up to 2 hours) prior to data collection. Bolus intravenous (IV) dosing was administered at a rate of 5-10 seconds per dose, and catheters were flushed with 350 μL of sterile saline to be sure of complete drug delivery. […] All plethysmography data was recorded automatically by the Buxco equipment.
Respiratory data were collected on a breath-by-breath basis and averaged into 1 min time bins for data analysis. For each designated acquisition phase, which is the time between doses, percent change from pre-treatment baseline values were calculated for each cohort on multiple ventilatory parameters including respiratory frequency (f), tidal volume (TV), accumulated volume (AV), minute ventilation (MV), inspiratory time (Ti), expiratory time (Te), peak inspiratory flow (PIF), peak expiratory flow (PEF), relaxation time (RT), end inspiratory pause (EIP), end expiratory pause (EEP), delta volume (DV), expiratory flow at 50% TV (EF50), rejection index (Rinx), compensation (Comp), enhanced pause (Penh), pause (PAU), PEF rate (Rpef), relative humidity (RH), and atmospheric temperature (Temp). […]

CCCNc1nc(NCCC)nc(N(C)OC)n1.O=S(=O)(O)O [XXXVI, N-(4,6-Bis-n-propylamino-[1,3,5]triazin-2-yl)-N,O-dimethyl-hydroxylamine hydrogen sulfate]
ED50 ([1]; Rattus norvegicus, iv, read-out: ED50, maximum peak minute ventilation): 0.14 mg/kg | minute ventilation, dose dependence ([1]; cumulative IV doses, 1.5% isoflurane): increased minute ventilation in a dose-dependent manner | effect on f, Ti, RT, EIP, dv, EF50, Rinx, Comp, Penh, PAU, Rpef, RH and Temp ([2]; 0.1 mg/kg/min infusion 30 min): had no obvious effect | effects of midazolam on MV, TV, AV, Te, PIF, PEF and EEP ([2]; 0.1 mg/kg/min infusion 30 min): had an effect to reverse the effects of midazolam | reversal of the BIRD induced decrease in MV ([2]; 0.1 mg/kg/min infusion, end of infusion period (t=38)): 100 | adverse behavioral effects ([2]; rats, doses tested): no adverse behavioral effects observed
